Data set [1] has as its system preantral follicles. In words: Preantral follicle culture. It counts as cell-based, mice. The text has this: CNP treatment promoted the growth of preantral follicles and cultured ovarian explants: Preantral follicles (125-135 um in diameter) were isolated from ovaries of mice at day 13 of age and treated with different hormones for four days with daily monitoring of follicle diameters. […] In contrast, treatment with ANP was ineffective.
Dissection follicles of different sizes and culturing of preantral follicles: For RT-PCR analyses, early secondary follicles of 90-140 um in diameters were isolated from mice at day 13 of age whereas antral follicles (300-400 um in diameter) were isolated from prepubertal mice at day 23 of age. Preovulatory follicles (500-600 um in diameter) were isolated from prepubertal mice treated with eCG (5 IU). For follicle cultures, preantral follicles (125-145 um in diameter) were isolated from mice at day 13 of age and cultured individually in 96 well plates containing alpha-MEM (100 ul/well) with penicillin and streptomycin together with insulin, transferrin and selenium. […] The media were changed every two days and follicle growth was monitored daily by measuring follicle diameters.

For data set [2], the system named is preantral follicles. Description: In vivo treatment of juvenile mice (day 13) with CNP followed by eCG/hCG. Conditions: day 13 mice. How it is done: In vivo treatment with CNP promoted follicle development for ovulation and subsequent pregnancy in juvenile, prepubertal, and adult mice: To test the ability CNP to stimulate preantral follicle development in vivo, juvenile mice at day 13 of age were treated i.p. with CNP daily for 4 days. This was followed by a single i.p. injection of eCG for 2 more days before determination of ovarian weight. […] Some of these animals were further treated with an ovulatory dose of hCG to check ovulation efficiency.
(§1) In vivo treatment with CNP, ovulation, and pregnancy: Infantile mice at day 13 of age were treated with CNP (20 ug/kg body weight) i.p. daily for 4 days. This was followed by a single injection of eCG (5 IU) for 2 days to stimulate penultimate follicle maturation before collection of ovaries for weighting and histological analyses. Some animals were further treated with an ovulatory dose (5 IU) of hCG and oocytes in oviducts were monitored at 16 h later to evaluate ovulation efficiency. To test the effects of CNP on early antral follicle growth, prepubertal mice at day 21 of age were treated intraperitoneally with CNP (50 ug/kg body weight) daily for four days to stimulate preovulatory follicle development, followed by the injection of an ovulatory dose (2.5 IU) of hCG. At 16 h later, number of ovulated oocytes was determined. Mature oocytes obtained from CNP-pretreated animals were used for in vitro fertilization. Sperm from CD1 male mice (10-12 weeks old) were collected into human tubal fluid media (Millipore) and incubated for 1 h at 37 C. Oocytes were fertilized with sperm (2-3×10^5/ml) for 6 h and inseminated oocytes were transfer into KSOM-AA medium (Millipore) to allow development into blastocysts. Some of the CNP-pretreated females were mated with fertile males for the monitoring of pregnancy and the delivery of pups.

Data set [3] can be described thus: Observation of abnormalities after 4 days of CNP treatment. The format is in vivo, mice. Conditions: present dosages and injection protocols. The text has this: CNP acts exclusively through NPRB whereas ANP and BNP act through NPRA. […] The apparent lack of side effects using the present low doses of CNP is consistent with earlier reports showing minimal cardiac and renal actions using physiological concentrations of CNP.

Data set [4] concerns ovaries from day 10 mice. In words: Ovarian explant cultures treated with CNP and/or FSH. Conditions: 4 days culture. It counts as cell-based. How it is done: Ovarian explant cultures: Ovaries from day 10 mice were placed on culture plate inserts (Millipore, Bedford, Mass.) and cultured in 400 μl of DMEM/F12 containing 0.1% BSA (Sigma), 0.1% Albumax II, insulin-transferrin-selenium, 0.05 mg/ml L-ascorbic acid and penicillin-streptomycin under the membrane insert to cover ovaries with a thin layer of medium. […] Some explants were also treated with a pan-specific protein kinase G inhibitor, Rp-8-Br-PET-cGMPS (BioLog, Bremen, Germany). At the end of culture, ovaries were fixed in Bouin's solution, paraffin embedded, and cut into continuous sections before staining with hematoxylin and eosin.

The test system of data set [5] is granulosa cells from mice at day 21 of age. Description: cGMP and cAMP production by cultured granulosa cells. The format is cell-based. Conditions: day 21 mice, 2 h. How it is done: (§2) Stimulation of cGMP, but not cAMP, production by cultured ovarian somatic cells: Because the NPRB receptors mediated cGMP production stimulated by the CNP ligand, we isolated somatic cells from ovaries of mice at day 13 of age and granulosa cells from mice at day 21 of age before treatment with increasing doses of CNP or a high dose (30 nM) of ANP for 2 h. Media content of both cGMP and cAMP were determined by RIA.

In data set [6] the test system is somatic cells from ovaries of mice at day 13 of age. In words: cGMP and cAMP production by cultured somatic cells. The format is cell-based. Conditions: day 13 mice, 2 h. How it is done:
as §2

The conditions of data set [7]: short term infusion in humans, supraphysiological levels in plasma; cited from earlier work.
Another data set relates to early antral follicles. Description: In vivo treatment of prepubertal mice (day 21) with CNP followed by hCG, in vitro fertilization, mating. How it is done:
To further test the ability of CNP to stimulate the development of early antral follicles to the preovulatory stage, prepubertal mice at day 21 days of age were treated i.p. with CNP daily for 4 days followed by a single injection of an ovulatory dose of hCG. At […] after hCG treatment, the number of ovulated mature oocytes were determined.
We further tested if ovulated oocytes retrieved after CNP pretreatment are capable of being fertilized. Oocytes were obtained from oviducts of CNP-pretreated prepubertal mice after hCG treatment and used for in vitro fertilization. We used oocytes obtained from prepubertal mice treated sequential with eCG (2 days) and hCG (16 h) as controls. […] Some prepubertal females pretreated with CNP followed by hCG to induce ovulation were mated with fertile males.
as §1

Data set [8] relates to human ovarian cortical fragments. Description: Xenografts of human ovarian cortical fragments. The format is in vivo.
A further data set relates to intestinal stem cell. Conditions: 100 μg/adult mice; cited from earlier work.
The subject of data set [9] is canonical Wnt signaling pathway. Description: TCF-luciferase assay in cultured ovarian somatic cells. It counts as cell-based. To be noted: somatic cells of day 10 mice, 18 h. The protocol: TCF-luciferase assay: Ovarian somatic cells from day 10 mice were cultured overnight at 37 C in McCoy's 5a medium containing 10% fetal bovine serum (FBS; Gibco) before evaluation of Wnt signaling based on the TCF-luciferase assay. Cells were transfected with 1 μg of pTOP FLASH or pFOP FLASH plasmid together with 0.1 μg of pRL-TK plasmid using lipofectamine 2000 (Invitrogen, Carlsbad, Calif.) for 6 h. […] Luciferase activity expressed as relative light unit was determined using a Dual Luciferase Reporter Assay Kit (Promega) with a luminometer (Bio-Rad).
Luciferase activity was measured as an index of Wnt signaling. […] To estimate the number of viable cells, cells were also cultured with increasing doses of R-spondin2 with or without Wnt3a before measurement of mitochondrial reductase (MTS) activity.

Data set [10] deals with ovaries from day 10 mice. In words: Ovarian explant cultures treated with R-spondin2 and/or FSH. The format is cell-based. The protocol:
Ovarian explant cultures: Ovaries from day 10 mice were placed on culture plate insert (Millipore, Bedford, Mass.) and cultured in 400 μl of DMEM/F12 (Gibco) containing 0.1% BSA (Sigma), 0.1% Albumax II (Gibco), insulin-transferrin-selenium (Gibco), 0.05 mg/ml L-ascorbic acid (Sigma) and penicillin-streptomycin (Gibco) under the membrane insert to cover ovaries with a thin layer of medium. […] Explants treated with non-immune IgG or boiled (100 C, 15 min) R-spondin2 antibodies served as negative controls. At the end of culture, ovaries were fixed in Bouin's solution, paraffin embedded, and cut into continuous sections before staining with hematoxylin and eosin. Only follicles with clearly stained oocyte nucleus were counted to prevent recounting of the same follicle.

In data set [11] the test system is somatic cells obtained from day 10 ovaries. In words: Cell proliferation (MTS) assay of ovarian somatic cells. It counts as cell-based, mice. How it is done:
Cell proliferation assay: Ovaries obtained from day 10 mice were digested with collagenase I, DNase, and trypsin. After centrifuging at 270×g for 10 min., cell pellet was washed and plated in a 96-well plate (BD Falcon, Franklin Lakes, N.J.) in McCoy's 5a medium (Gibco BRL, Grand Island, N.Y.) containing 4 mg/ml BSA (Sigma Aldrich Chemicals, St. Louis, Mo.), penicillin-streptomycin (Gibco) and sodium pyruvate (Gibco) for 3 h at 37 C. After washing twice with PBS to remove floating oocytes, cells were cultured in serum-free McCoy's 5a medium containing different factors for 48 h. MTS (3-(4,5-dimethylthiazol-2-yl)-5-(3-carboxymethoxyphenyl)-2-(4-sulfophenyl)-2H-tetrazolium) assay was performed using Cell Titer 96 Aqueous One Solution Cell Proliferation Assay (Promega, Madison, Wis.) by adding the substrate for 2 h before measuring absorbance at 490 nm.

[12] abbreviates: treatment with R-spondin2 and/or FSH.

For the molecule “CNP: 22 amino acid peptide cleaved from NPPC precursor; activates natriuretic peptide receptor-B (NPRB)”, in the data set with preantral follicles [1] (FSH 25 ng/ml), the “Follicle growth, combined treatment with CNP and FSH” value was “additive increases in follicle growth”. The “Follicle size compared with 8-bromo-cGMP” value in the data set on preantral follicles [1] (four days culture) is recorded as “comparable”. Besides, the “Follicle size (diameter)” value with preantral follicles [1] (preantral follicles of day 13 mice, four days) is “dose- and time-dependent increases in follicle size”. Also, the “Ovulated oocytes in the oviducts vs controls” value in the data set with preantral follicles [2] (CNP, then eCG and hCG) was “higher numbers of ovulated oocyte”. The “Increase in ovarian weight” value with preantral follicles [2] (i.p. 20 ug/kg daily for 4 days, then eCG 2 days) was determined as 56%. The “Development of antral follicles (histological analyses)” value in the data set on preantral follicles [2] (i.p. daily for 4 days, then eCG) is on record as “increases in the development of antral follicles”. In addition, the Abnormalities following treatment result in data set [3] is listed as “did not observe abnormalities”. In the data set on ovaries from day 10 mice [4], the “Development of preantral follicles (histological analyses)” value is “promoted the development of preantral follicles”. In the data set with ovaries from day 10 mice [4] (combined with FSH), the “Ovarian weights of explants, both CNP and FSH included” value is reported as “additive increases”. For the same molecule, the “Ovarian weights of explants” value with ovaries from day 10 mice [4] (day 10 ovaries) was “dose-dependent increases in ovarian weights”. Also, the cAMP production entry in data set [5] and in [6] was “no changes in cAMP production” in each case. Besides, the “Media content of cGMP” value in [5] (ANP 30 nM) and in data set [6] (ANP 30 nM) was “dose-dependent increases in media content of cGMP” throughout. For the same molecule, the “Vasodepressor or natriuretic action” value in [7] is “not vasodepressor or natriuretic”. Also, in the data set with early antral follicles (day 21 mice, 18 h after hCG), the “Number of ovulated oocytes induced by hCG vs saline” value is “an increase in the number of ovulated oocytes”. In addition, the Ovarian weight entry with early antral follicles (day 21 mice, i.p. 50 ug/kg daily for 4 days, then hCG) was “increased ovarian weight”. The “Development of fertilized oocytes to the blastocyst stage vs control oocytes (eCG-hCG)” value in the data set with early antral follicles (in vitro fertilization of oocytes of CNP-pretreated prepubertal mice) is “same efficiency”. Moreover, the “Pregnancy after mating with fertile males” value with early antral follicles (prepubertal females pretreated with CNP followed by hCG) is on record as “Successful pregnancy was demonstrated followed by the delivery of healthy pups”. The “Follicle growth as revealed by follicle counting” value in data set [8] was “stimulated follicle growth”.

B1: R-spondin1: secreted glycoprotein of the R-spondin family that synergizes with Wnts to activate β-catenin-dependent signaling (protein, UniProt Q2MKA7 21-263, looked up)
R-spondin-1: SRGIKGKRQRRISAEGSQACAKGCELCSEVNGCLKCSPKLFILLERNDIRQVGVCLPSCPPGYFDARNPDMNKCIKCKIEHCEACFSHNFCTKCKEGLYLHKGRCYPACPEGSSAANGTMECSSPAQCEMSEWSPWGPCSKKQQLCGFRRGSEERTRRVLHAPVGDHAACSDTKETRRCTVRRVPCPEGQKRRKGGQGRRENANRNLARKESKEAGAGSRRRKGQQQQQQQGTVGPLTSAGPA
Take B1: the “Intestinal stem cell proliferation and intestinal growth” value with intestinal stem cell was “stimulate intestinal stem cell proliferation and intestinal growth”.

B2: R-spondin2: secreted protein that regulates beta-catenin; oocyte-derived paracrine factor; recombinant human R-spondin2 (protein, UniProt Q6UXX9 22-243, looked up)
R-spondin-2: QGNRWRRSKRASYVSNPICKGCLSCSKDNGCSRCQQKLFFFLRREGMRQYGECLHSCPSGYYGHRAPDMNRCARCRIENCDSCFSKDFCTKCKVGFYLHRGRCFDECPDGFAPLEETMECVEGCEVGHWSEWGTCSRNNRTCGFKWGLETRTRQIVKKPVKDTILCPTIAESRRCKMTMRHCPGGKRTPKAKEKRNKKKKRKLIERAQEQHSVFLATDRANQ
Take B2: in [9] (combined with Wnt3a), the “TCF-luciferase activity in the presence of both Wnt3a and R-spondin2” value was “synergistic increases”. In [9] (agent alone), the TCF-luciferase activity entry was “minimal stimulation”. Further, in the data set with ovaries from day 10 mice [10] (4 days culture), the “Ovarian follicle development (morphological analyses)” value is on record as “promotion of ovarian follicle development”. The “Ovarian weight of explants, R-spondin2 and FSH added together” value with ovaries from day 10 mice [10] (4 days culture, combined with FSH) is on record as “further increases”. The “Ovarian weight of explants” value in the data set on ovaries from day 10 mice [10] (day 10 ovaries, 4 days culture) is given as “increased ovarian weight in a dose-dependent manner”. Further, in the data set with ovaries from day 10 mice [10] (setting [12]), the “Percentage of primordial and degenerated follicles” value is on record as “negligible changes”; the “Ratio of primary and percentage of secondary follicles” value is listed as “decreased the ratio of primary follicles accompanied by increases in the percentage of secondary follicles”. Further, in data set [11] (agent alone, 2 days), the “MTS activity (viable cell number)” value is “stimulated MTS activity in a dose-dependent manner”. The “MTS activity with both Wnt3a and R-Spondin2” value in data set [11] (combined with Wnt3a) is “further increases in MTS activity”.
